Source: US20220064291A1, “METHODS OF USING BUTYROPHILIN ANTIBODIES FOR TREATING HIV INFECTION” (Merck Sharp & Dohme Corp., priority 2018, published 2022)

What was measured:
human CD4+ T cells = experiment: Inhibition of anti-CD3 (TCR)-mediated T cell activation by recombinant butyrophilin-Fc proteins, bead- and plate-based assays; details: anti-CD3 stimulation, FIG. 3
Experimental: To characterize the role of butyrophilins in regulating T cell responses, T cell assays were performed using recombinant human butyrophilin-Fc proteins. Specifically, we assessed the role of butyrophilins in inhibiting T cell receptor (TCR)-mediated T cell activation by anti-CD3 antibody (clone OKT3). Experiments were performed in bead- and plate-based formats.
Briefly, PBMCs were isolated from healthy human donors (Biological Specialty Corporation, Colmar, Pa.). To generate T cell blasts, PBMCs were treated with IL-2 (4u/ml) and PHA (1 μg/ml) in RPMI media containing 10% Fetal bovine serum (Gibco, Gaithersburg, Md.), penicillin (100U/ml)/streptomycin (0.1 mg/ml) (Gibco, Gaithersburg, Md.), and L-Glutamine (2 mM) (Gibco, Gaithersburg, Md.) at 37° C. in a CO2 incubator for 7 days. Fresh media was added once every 3 days. […]
4. […] T cell activation was measured based on IFNγ expression using a V-PLEX proinflammatory panel 1 human assay (Meso Scale Discovery, Rockville, Md.) (FIG. 3A-C).
Sterile 96-well flat bottom tissue culture plates (Corning) were coated with 1 μg/ml of anti-CD3 antibody (Clone OKT3, BD Pharmingen) in PBS+/− the following Fc-fusion proteins: BTN2A2-Fc, BTN3A1-Fc, or human IgG Fc. […] T cell activation was measured based on IFNγ expression using a V-PLEX proinflammatory panel 1 human assay (Meso Scale Discovery, Rockville, Md.) (FIG. 3D).

[1] = tested on: HIV latent primary CD4+ T cells; experiment: Competition with recombinant BTN-Fc proteins against anti-BTN3A 20.1-mediated virus reactivation; format: cell-based, human; details: recombinant Fc proteins 0.03-10 μg/ml; 24 h; FIG. 6
Experimental: To confirm the specificity of anti-BTN3A antibody-mediated activity on latent virus activity and T cell activation, we performed competition experiments using recombinant BTN proteins. Briefly, 96-well flat bottom tissue culture plates (Corning) were coated with anti-CD3 (1 μg/ml) and anti-BTN3A 20.1 antibody (5 μg/ml) in PBS for 16 h in a 4° C. refrigerator. The next day, antibodies were aspirated using a multichannel pipette and various concentrations of recombinant BTN-Fc proteins BTN3A1-Fc and BTN3A2-Fc (10 μg/ml, 3 μg/ml, 1 μg/ml, 0.3 μg/ml, 0.1 μg/ml, and 0.03 μg/ml) were added to antibody coated plates in 2% FBS (in PBS). BTN2A2-Fc and human IgG Fc were used as controls. After 30 min incubation at RT recombinant Fc proteins were aspirated using a multichannel pipette. Next, HIV latent primary CD4+ T cells from two donors were added to the antibody coated plates in duplicates at 125,000 cells/well in 200 ul of primary cell media (RPMI with 10% FBS, 50 μg/ml Primocin™). At 24h post treatment virus reactivation was measured using a Nano-Glo® Luciferase Assay (Promega) (FIG. 6).

BTN3A1-Fc: recombinant human butyrophilin-Fc fusion protein, R&D systems
activation of human CD4+ T cells (IFNγ production, T cell proliferation, IL-2 production) (human CD4+ T cells): block activation
inhibition of anti-BTN3 20.1 Ab-mediated latent HIV activation and T cell activation [1]: dose-dependent inhibition
